Data: patent US11654097B2, “Peptide having activities of skin whitening and uses thereof” (CAREGEN CO., LTD., priority 2019, dated 2023)

Legend:
[1] = target: T1, tyrosinase (Mus musculus, UniProt P11344); assay: Inhibitory effect on tyrosinase activity in lysate of treated B16F10 cells (L-DOPA); assay type: cell-based; details: B16F10, 200 ng/ml α-MSH, peptide 1-160 μM, 72 hours, absorbance at 475 nm
T1 construct: The cells were lysed by adding a 0.1 M sodium phosphate buffer (pH 6.8, lysis buffer) containing 1% triton X-100; endogenous in cells; host or cells: B16F10 mouse melanoma cells stimulated with alpha-MSH
T1 sequence (P11344 19-533): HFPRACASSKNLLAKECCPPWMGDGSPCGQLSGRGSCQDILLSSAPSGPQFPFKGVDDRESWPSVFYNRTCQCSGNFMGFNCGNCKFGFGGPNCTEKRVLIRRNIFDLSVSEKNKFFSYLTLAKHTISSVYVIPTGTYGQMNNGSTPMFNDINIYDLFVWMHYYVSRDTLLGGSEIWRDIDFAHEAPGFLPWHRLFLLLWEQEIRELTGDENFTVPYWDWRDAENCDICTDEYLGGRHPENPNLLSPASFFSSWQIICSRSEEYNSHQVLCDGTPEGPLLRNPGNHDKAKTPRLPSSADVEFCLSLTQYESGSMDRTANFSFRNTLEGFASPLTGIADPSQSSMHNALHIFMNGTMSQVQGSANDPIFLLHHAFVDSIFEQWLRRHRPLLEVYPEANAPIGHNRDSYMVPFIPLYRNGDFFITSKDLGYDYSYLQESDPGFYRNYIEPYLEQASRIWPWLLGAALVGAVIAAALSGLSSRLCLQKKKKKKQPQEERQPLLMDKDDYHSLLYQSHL
Description: A mouse melanoma cell B16F10 was seeded in a 6-well plate at a density of 5×10^4 cells/well, followed by incubation for 16 hours. Thereafter, the culture medium was replaced by a medium supplemented with 2% serum, and then 200 ng/ml of α-MSH was added thereto, together with each peptide of an amino acid sequence of SEQ ID NO: 1, 2, or 3 at a concentration of 1 μM, 10 μM, 20 μM, 40 μM, 60 μM, 80 μM or 160 μM, respectively, followed by incubation for 72 hours. The 6-well plate was placed on ice, and then washed with cold PBS. The cells were lysed by adding a 0.1 M sodium phosphate buffer (pH 6.8, lysis buffer) containing 1% triton X-100. Thereafter, the cells in the well plate were scraped, and collected in a 1.5 ml tube, followed by vortexing. Centrifugation was carried out at 15,000 rpm for 10 minutes to obtain a supernatant. Thereafter, proteins in the supernatant was quantified to adjust the protein content at a predetermined amount. A buffer was added thereto, and total 90 μl of the sample was dispensed in a 96-well plate.
Thereafter, 20 μL of 10 mM L-DOPA was added to each sample, and incubated at 37° C. for 1 hour. Then, absorbance at 475 nm was measured. In addition, an untreated group (Con) was used as a control, and only α-MSH-treated group as a negative control and Arbutin (200 μM or 500 μM) and α-MSH-treated group as a positive control were used.

[2] = tested on: tyrosinase; assay: Expression of melanin production-associated gene (RT-PCR) in B16F10 cells; assay type: cell-based, mouse; details: B16F10, 200 ng/ml α-MSH, peptide 10-200 μM, 72 hours
Description: (§1) A mouse melanoma cell B16F10 was seeded in a 6-well plate at a density of 5×10^4 cells/well, followed by incubation for 16 hours. Thereafter, the culture medium was replaced by a medium supplemented with 2% serum, and then 200 ng/ml of α-MSH was added thereto, together with each peptide of an amino acid sequence of SEQ ID NO: 1, 2, or 3 at a concentration of 10 μM, 50 μM, 100 μM, or 200 μM, respectively, followed by incubation for 72 hours. mRNAs were extracted from the cultured cells, and the extracted mRNAs were reverse transcribed using a cDNA synthesis kit & PCR pre-mix (Intron, Korea), thereby synthesizing cDNA, respectively. Thereafter, a polymerase chain reaction (PCR) was carried out using each cDNA and Rab27a, Melanophilin (Mlph), myosin VA, MITF, Tyrosinase, and TRP1 primers. Moreover, a control, a negative control, and a positive control were used in the same manner as in Example 2, and nucleotide sequences of the primers used herein are the same as in Table 3 below.

[3] = tested on: MITF; assay: as above; assay type: cell-based, mouse; details: B16F10, 200 ng/ml α-MSH, peptide 10-200 μM, 72 hours
Description: as §1

[4] = tested on: Mlph; assay: as above; assay type: cell-based, mouse; details: B16F10, 200 ng/ml α-MSH, peptide 10-200 μM, 72 hours
Description: as §1

[5] = tested on: tyrosinase; assay: Expression of melanin production-associated protein (Western blotting) in B16F10 cells; assay type: cell-based, mouse; details: B16F10, 200 ng/ml α-MSH, peptide 10-200 μM, 72 hours
Description: (§2) A mouse melanoma cell B16F10 was seeded in a 6-well plate at a density of 5×10^4 cells/well, followed by incubation for 16 hours. Thereafter, the culture medium was replaced by a medium supplemented with 2% serum, and then 200 ng/ml of α-MSH was added thereto, together with each peptide of an amino acid sequence of SEQ ID NO: 1, 2, or 3 at a concentration of 10 μM, 50 μM, 100 μM, or 200 μM, respectively, followed by incubation for 72 hours. Thereafter, the cultured cells were lysed, and then subjected to Western blotting using antibodies (santacruz biotechnology, USA) against Mlph, Rab27a, Tyrosinase, MITF, and TRP-1. In addition, a control, a negative control, and a positive control were used in the same manner as in Example 2.

[6] = tested on: MITF; assay: as above; assay type: cell-based, mouse; details: B16F10, 200 ng/ml α-MSH, peptide 10-200 μM, 72 hours
Description: as §2

[7] = tested on: TRP-1; assay: as above; assay type: cell-based, mouse; details: B16F10, 200 ng/ml α-MSH, peptide 10-200 μM, 72 hours
Description: as §2

[8] = tested on: mouse melanoma cell B16F10; assay: Inhibitory effect on melanin production in α-MSH-stimulated B16F10 cells; assay type: cell-based; details: B16F10, 200 ng/ml α-MSH, peptide 10, 50, 100 or 200 μM, 72 hours, absorbance at 450 nm
Description: A mouse melanoma cell B16F10 was seeded in a 6-well plate at a density of 5×10^4 cells/well, followed by incubation for 16 hours. Thereafter, the culture medium was replaced by a medium supplemented with 2% serum, and then 200 ng/ml of α-melanocyte-stimulating hormones (α-MSH) was added thereto to stimulate melanin production, together with each peptide of an amino acid sequence of SEQ ID NO: 1, 2, or 3 at a concentration of 10 μM, 50 μM, 100 μM, or 200 μM, respectively, followed by incubation for 72 hours. Thereafter, the incubated cells were dissolved in 1 N NaOH, and absorbance at 450 nm was measured. Moreover, an untreated group (Con) was used as a control, and only an α-MSH-treated group as a negative control and a known skin-whitening agent Arbutin (200 μM, 500 μM) and an α-MSH-treated group as a positive control were used.

[9] = tested on: myosin VA; assay: Expression of melanin production-associated gene (RT-PCR) in B16F10 cells; assay type: cell-based, mouse; details: B16F10, 200 ng/ml α-MSH, peptide 10-200 μM, 72 hours
Description: as §1

[10] = tested on: Rab27a; assay: as above; assay type: cell-based, mouse; details: B16F10, 200 ng/ml α-MSH, peptide 10-200 μM, 72 hours
Description: as §1

[11] = tested on: TRP1; assay: as above; assay type: cell-based, mouse; details: B16F10, 200 ng/ml α-MSH, peptide 10-200 μM, 72 hours
Description: as §1

[12] = tested on: Rab27a; assay: Expression of melanin production-associated protein (Western blotting) in B16F10 cells; assay type: cell-based, mouse; details: B16F10, 200 ng/ml α-MSH, peptide 10-200 μM, 72 hours
Description: as §2

[13] = tested on: Mlph; assay: as above; assay type: cell-based, mouse; details: B16F10, 200 ng/ml α-MSH, peptide 10-200 μM, 72 hours
Description: as §2

Row | Substance | tyrosinase activity [1] | expression of tyrosinase gene [2] | expression of MITF gene [3] | expression of Mlph gene [4] | expression of Tyrosinase protein [5] | expression of MITF protein [6] | expression of TRP-1 protein [7] | melanin production [8] | expression of myosin VA gene [9] | expression of Rab27a gene [10] | expression of TRP1 gene [11] | expression of Rab27a protein [12] | expression of Mlph protein [13]
1 | FHFIPNW [SEQ ID NO: 2] | inhibited in a concentration-dependent manner | inhibited | inhibited | inhibited | inhibited | inhibited | inhibited | reduced in a concentration-dependent manner | – | – | – | – | –
2 | LRKRKRRFWVL [SEQ ID NO: 1] | inhibited in a concentration-dependent manner | inhibited | inhibited | – | inhibited | inhibited | – | reduced in a concentration-dependent manner | inhibited | inhibited | inhibited | inhibited | inhibited
3 | WPFLRP [SEQ ID NO: 3] | inhibited in a concentration-dependent manner | inhibited | inhibited | inhibited | inhibited | inhibited | – | reduced in a concentration-dependent manner | inhibited | inhibited | inhibited | inhibited | inhibited
